The text below walks through data of patent US8716355B2, “Hydroxylated tolans and related compounds in the treatment of a cancer” (Kent State University, priority 2007, dated 2014).

The test system of one assay is Mushroom tyrosinase. The assay is described as follows: Inhibition of mushroom tyrosinase activity. Particulars: concentration not given. The format is biochemical. The protocol:
All chemical used for reagents were purchased from Sigma Chemical Company. KST201 at each tested concentration (1000, 250 and 100 μM) was dissolved in 10% ethanol from a master mixture of the drug prepared at 0.1M in 100% ethanol.
Mushroom tyrosinase (Sigma) was diluted in 50 mM phosphate buffer, pH 6.5 to yield a concentration of 16 U/μl. […] A master mix containing 0.5 mM L-DOPA [3,4-dihydroxy-1-phenylalanine], 10 mM Sodium L-tyrosine in 50 mM phosphate buffer, pH 6.5 was prepared. The KST-201 dilutions were preincubated with the enzyme for 20 minutes. The samples were pipetted into 24 well plates and the master mixture added quickly. The reaction was read using a kinetic format in which wells were read every 30 seconds over a course of 10 minutes at a wavelength of 475 nm using a Synergy HT Plate reader. A kinetic curve was generated for each sample compared to a total reaction with mushroom tyrosinase without a drug (total).

A further assay has as its system NF-κB p65. The assay is described as follows: NF-κB p65 DNA-binding activity in DU145 cells (ELISA). To be noted: for DNA binding of p65, % of basal activity: 100 μM. The format is cell-based, human. The protocol:
An ELISA kit (Pierce, Rockford, Ill.) was used to detect the active forms of NF-κB p65 by measuring its binding to a consensus DNA sequence. A primary antibody specific for p65 and a secondary horse-radish peroxidase (HRP)-conjugated antibody were used sequentially to produce immobilized p65-HRP complexes. A chemiluminescent substrate for HRP was added and the reaction read using the Fluoroskan Ascent FL plate reader
An ELISA kit (Pierce, Rockford, Ill.) was used to detect the active forms of NF-κB p65 by measuring its binding to a consensus DNA sequence. […] As controls, untreated cells were prepared under the same conditions. Cells were collected by scraping and incubated in ice-cold RIPA lysis buffer containing 1% NP40, 0.5% sodium deoxycholate, 0.1% SDS and protease inhibitor cocktail. After centrifugation, the supernatant was transferred to a streptavidin-coated 96-well plate. Active p65 in the sample binds to the immobilized DNA molecules.
To ensure the signal specificity, competitive DNA fragments containing a NF-κB binding site were used to prevent the binding of NF-κB to the consensus sequence. A primary antibody specific for p65 and a secondary HRP-conjugated antibody were added to each well sequentially, resulting in an immobilized p65-HRP complex. Unbound antibodies were washed away. A mixture of luminol/enhancer and peroxide solution was added into each well as a chemiluminescent substrate for HRP. The chemiluminescent signal, proportional to the relative amount of active p65 in the sample, was detected using the Fluoroskan Ascent FL plate reader (Thermo, Waltham, Mass.).
DNA sequences containing p65-binding site were immobilized to wells of 96-well plates, allowing activated p65 to bind. After washing, the amount of bound p65 was detected and quantified by the above method. The DNA-binding of active p65 was determined by the intensity of chemiluminescence produced by DNA-p65-HRP complex immobilized on well surfaces. The results represent the mean±SD of triplicate determinations. An inhibitor of p65 binding to DNA was added to confirm specificity. […]
On the technique in general: An ELISA detects its analyte on a solid surface through an enzyme-linked reagent.

The next assay addresses T1, ovine COX-1 (Ovis aries, UniProt P05979).
T1 construct: purchased Cayman Chemical 560131
The assay can be described thus: COX Inhibitor Screening Assay, COX1. Type of assay: biochemical. On the procedure:
The indicated concentration of these agents were tested in the presence of COX1. COX activity was quantified by measuring the amount of final product PGF2α which competed with acetylcholinesterase (AChE)-linked PGs for binding to its antibody immobilized to the surface of microplate wells. Color was developed by adding an AChE substrate and was inversely related to the amount of PGF2α±SD of triplicate determinations.
The prostanoid product can be quantified via enzyme immunoassay (EIA) using a broadly specific antibody that binds to all the major prostaglandin compounds. COX assays from Cayman Chemical, Ann Arbor, Mich., are more accurate and reliable than assays based on peroxidase inhibition. The Cayman COX Inhibitor Screening Assay includes both ovine COX-1 and human recombinant COX-2 enzymes in order to screen isozyme-specific inhibitors. This assay is an excellent tool which can be used for general inhibitor screening.
COX was assayed by measuring production of PGF2, generated by stannous chloride (SnCl2) in the presence of PGH2 using a commercial kit from Cayman Chemical, (Ovine COX Inhibitor Screening Assay, Catalog #560131). […]
A 96-well plate coated with mouse anti-rabbit IgG was then used and various components were added—assay standards, nonspecific binding controls, maximum binding controls, and the inhibitor dilutions—along with the tracer and antiserum. The plate was incubated at room temperature for 18 hours, washed five times with wash buffer, developed with Ellman's Reagent and the colored reaction product was read on an automatic microplate reader at 410 nm. The IC50 for the respective COX enzyme was graphically determined from a three-point curve. […]
The intensity of color was inversely proportional to the amount of free prostaglandins quantitatively representing the COX enzymatic activity, under the influence of the test compounds.
As noted, COX activity was quantified by measuring the amount of final product PGF2-α which competed with AChE-linked PGs for binding to an antibody immobilized to microplates. […]

T1 sequence (P05979 25-600): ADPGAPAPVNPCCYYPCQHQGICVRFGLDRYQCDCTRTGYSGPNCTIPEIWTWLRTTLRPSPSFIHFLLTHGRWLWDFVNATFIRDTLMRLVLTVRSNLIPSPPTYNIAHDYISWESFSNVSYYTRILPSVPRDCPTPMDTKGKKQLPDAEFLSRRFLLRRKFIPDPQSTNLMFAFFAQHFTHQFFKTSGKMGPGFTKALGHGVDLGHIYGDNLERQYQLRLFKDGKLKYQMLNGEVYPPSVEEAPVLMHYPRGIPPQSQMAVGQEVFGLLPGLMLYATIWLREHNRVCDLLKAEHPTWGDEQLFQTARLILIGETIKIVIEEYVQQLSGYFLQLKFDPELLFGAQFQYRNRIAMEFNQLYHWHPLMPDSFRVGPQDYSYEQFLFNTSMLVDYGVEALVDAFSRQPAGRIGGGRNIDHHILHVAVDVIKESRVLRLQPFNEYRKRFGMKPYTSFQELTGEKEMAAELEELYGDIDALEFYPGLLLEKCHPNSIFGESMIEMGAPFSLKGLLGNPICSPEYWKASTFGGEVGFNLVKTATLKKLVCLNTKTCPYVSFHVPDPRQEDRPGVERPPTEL

With `Oc1ccc(C#Cc2ccc(O)cc2)cc1` [KST-201, 4,4′-dihydroxytolan], the “% inhibition of mushroom tyrosinase activity” value in the assay on Mushroom tyrosinase is given as 59.2±13%. Further, the “Reduction of DNA-binding activity of NF-κB by at least 50%” value in the assay with NF-κB p65 (12-hour treatment) is recorded as “not sufficient to reduce DNA-binding activity of NF-κB”. Moreover, the “NF-κB inhibition compared with resveratrol” value with NF-κB p65 (24-hour treatment, 50 and 100 μM) is “more effective inhibitor of NF-κB”. In addition, the “Inhibition of COX1 activity” value on ovine COX-1 (doses of 10 to 200 μM tested) was “about 50%”.

Consider `Oc1ccc(/C=C/c2cc(O)cc(O)c2)cc1` [Resveratrol, 3,5,4′-trihydroxy-trans-stilbene, reference compound], for which the “% inhibition of mushroom tyrosinase activity” value in the assay on Mushroom tyrosinase is 59.9±7.4%. Further, the “DNA binding of p65, % of basal activity” value in the assay on NF-κB p65 (12 hours) stood at 55.3%; in the assay with NF-κB p65 (24 hours), 40.2%. Further, in the assay on NF-κB p65 (24-hour treatment at 5, 25 and 50 μM), the “DNA binding activity of p65, % of basal activity” value is recorded as approximately 80%. The COX1 enzymatic activity entry at ovine COX-1 (high end of 10 μM to 200 μM) is recorded as “complete inhibition”. The “COX1 enzymatic activity, % of initial activity” value at ovine COX-1 (low end of 10 μM to 200 μM) is on record as 5%.
